These are literature values, as cited in publication PMC8537947, “Improved Radiolytic Stability of a ^68Ga-labelled Collagelin Analogue for the Imaging of Fibrosis” (Pharmaceuticals, 2021).

For one series, the target named is collagen I. Particulars: initial cyclic peptide analogues, earlier work of the authors; cited from earlier work. The source says: One of the targets for radioactive imaging agents is type I collagen which is the most abundant extracellular matrix protein [1, 2, 3, 4, 5, 6]. Collagelin, a cyclic peptide identified from the bacterial peptide library, presumably binds selectively to the triple helix structure of collagen. The aim of this study was to develop a PET tracer for the specific imaging of early active fibrosis via binding to monomer collagen. The uptake in bone, skin and other tissues rich in collagen cross-linked fibrils, and in diseased sites with established, mature collagen was expected to be low, ...

The test system of series [1] is frozen sections of dog heart affected by fibrosis. The settings on record: cited from earlier work. The text has this:
The presence of excessive deposition of collagen was confirmed previously performing a Sirius Red histological assay on the adjacent tissue sections. The uptake of [^68Ga]Ga-NO2A-[Nle^13]-Col in the fibrotic tissue linearly correlated (R^2 = 0.84, Figure 2C) with the scoring of fibrosis, indicating a target density ranging between ...

“c[CPGRVXHGLHLGDDEGPC] (disulfide) [[^68Ga]Ga-NO2A-Col]”: the Kd (commonly the equilibrium constant for the complex coming apart) on collagen I was 2.3 ± 0.8 µM. In series [1], the target density was 2.0 fmol/mm^3.
